From ChEMBL document CHEMBL1155891, “Synthesis and antiviral evaluation of some new pyrazole and fused pyrazolopyrimidine derivatives” (Bioorg Med Chem, 2008)
The source made the active and inactive calls. The rule behind the calls is not given here.

Tests used:
Human alphaherpesvirus 1 [1] = assay: Antiviral activity against HSV1 10 ug/10^5 cells by plaque infectivity assay; format: functional, organism-based
Hepatovirus A [2] = assay: Antiviral activity against HAV 10 ug/10^5 cells by plaque infectivity assay; format: functional, organism-based
Human alphaherpesvirus 1 [3] = assay: Antiviral activity against HSV1 20 ug/10^5 cells by plaque infectivity assay; format: functional, organism-based
Hepatovirus A [4] = assay: Antiviral activity against HAV 20 ug/10^5 cells by plaque infectivity assay

Row | Structure (SMILES) | Activity (Human alphaherpesvirus 1 [1]) | Activity (Hepatovirus A [2]) | Activity (Human alphaherpesvirus 1 [3]) | Activity (Hepatovirus A [4])
1 | COC(CSc1ncnc2c1cnn2-c1ncnc2sc3c(c12)-c1ccccc1CC3)OC | Active | – | – | –
2 | N#Cc1cnn(-c2ncnc3sc4c(c23)-c2ccccc2CC4)c1NC(=S)NC(=O)c1ccccc1 | Active | Active | Active | –
3 | COCCSc1ncnc2c1cnn2-c1ncnc2sc3c(c12)-c1ccccc1CC3 | Active | – | Active | –
4 | CCOC(=O)c1cnn(-c2ncnc3sc4c(c23)-c2ccccc2CC4)c1N | – | – | – | Active
5 | N#Cc1cnn(-c2ncnc3sc4c(c23)-c2ccccc2CC4)c1N | – | Active | – | Active
